“And” between values parts separate entries of the source, which are not always exact repeats. Identical values can stand only once. Inconclusive results and toxic doses are left out. Square brackets hold non-standard residues; d marks the D form. Peptide text beside a SMILES is read from it. ξ: configuration not given here. Ac5c = NC1(C(=O)O)CCCC1; ξS = NC(CO)C(=O)O
Tested on: BDF1 mice, B16 melanoma ip, median survival T/C
Assay: NCI In Vivo Anticancer Drug Screen. Data for tumor model B16 Melanoma (intraperitoneal) in B6D2F1 (BDF1) mice
Conditions: endpoint: median survival time, higher = longer survival
Summary of the method: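 Survival or tumor size is measured after treatment of tumor-bearing mice and normalised to the vehicle-treated control group.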

[1] = dose: 100.0 mg/kg/injection, schedule: Q01DX009 (ip), vehicle: saline with Tween-80
[2] = dose: 25.0 mg/kg/injection, schedule: Q01DX009 (ip), vehicle: saline with Tween-80
[3] = dose: 50.0 mg/kg/injection, schedule: Q01DX009 (ip), vehicle: saline with Tween-80

## COC(=O)C12OCC34C(CC5C(C)=C(O)C(=O)CC5(C)C3C(O)C1O)OC(=O)C(OC(=O)/C=C(\C)C(C)(C)O)C24 (stereo not drawn)
dose: 0.05 mg/kg/injection, schedule: Q01DX009 (ip), vehicle: saline with Tween-80
  T/C: 124 % of control
dose: 0.1 mg/kg/injection, schedule: Q01DX009 (ip), vehicle: saline with Tween-80
  T/C: 150 % of control
dose: 0.2 mg/kg/injection, schedule: Q01DX009 (ip), vehicle: saline
  T/C: 159 % of control
dose: 0.4 mg/kg/injection, schedule: Q01DX009 (ip), vehicle: saline with Tween-80
  T/C: 152 % of control
dose: 0.4 mg/kg/injection, schedule: Q01DX009 (ip), vehicle: saline
  T/C: 153 % of control
dose: 0.8 mg/kg/injection, schedule: Q01DX009 (ip), vehicle: saline with Tween-80
  T/C: 172 % of control
dose: 1.6 mg/kg/injection, schedule: Q01DX009 (ip), vehicle: saline with Tween-80
  T/C: 161 % of control

## CO[C@@]12[C@H](COC(N)=O)C3=C(C(=O)C(C)=C(N)C3=O)N1C[C@@H]1N[C@@H]12
dose: 0.06 mg/kg/injection, schedule: Q01DX009 (ip), vehicle: Klucel (hydroxypropylcellulose) (HPC)
  T/C: 113 % of control
dose: 0.1 mg/kg/injection, schedule: Q04DX003 (ip), vehicle: saline
  T/C: 99 % of control
dose: 0.13 mg/kg/injection, schedule: Q01DX001 (ip), vehicle: clinical formulation
  T/C: 105 % of control
dose: 0.13 mg/kg/injection, schedule: Q01DX009 (ip), vehicle: Klucel (hydroxypropylcellulose) (HPC)
  T/C: 114 % of control
dose: 0.13 mg/kg/injection, schedule: Q01DX009 (ip), vehicle: saline
  T/C: 117 % of control
dose: 0.2 mg/kg/injection, schedule: Q04DX003 (ip), vehicle: saline
  T/C: 113 % of control
dose: 0.22 mg/kg/injection, schedule: Q01DX009 (ip), vehicle: saline
  T/C: 103 % of control
dose: 0.25 mg/kg/injection, schedule: Q01DX001 (ip), vehicle: clinical formulation
  T/C: 114 % of control
dose: 0.25 mg/kg/injection, schedule: Q01DX009 (ip), vehicle: Klucel (hydroxypropylcellulose) (HPC)
  T/C: 110 % of control
dose: 0.25 mg/kg/injection, schedule: Q01DX009 (ip), vehicle: saline
  T/C: 103 % of control
dose: 0.36 mg/kg/injection, schedule: Q01DX009 (ip), vehicle: saline
  T/C: 117 % of control
dose: 0.5 mg/kg/injection, schedule: Q01DX001 (ip), vehicle: clinical formulation
  T/C: 123 % of control
dose: 0.5 mg/kg/injection, schedule: Q01DX009 (ip), vehicle: Klucel (hydroxypropylcellulose) (HPC)
  T/C: 113 % of control
dose: 0.5 mg/kg/injection, schedule: Q01DX009 (ip), vehicle: saline
  T/C: 159 % of control
dose: 0.54 mg/kg/injection, schedule: Q01DX009 (ip), vehicle: saline
  T/C: 154 % of control and 217 % of control
dose: 0.54 mg/kg/injection, schedule: Q01DX010 (ip), vehicle: saline
  T/C: 114 % of control
dose: 0.6 mg/kg/injection, schedule: Q01DX009 (ip), vehicle: saline
  T/C: 151 % of control
dose: 0.9 mg/kg/injection, schedule: Q01DX010 (ip), vehicle: saline
  T/C: 107 % of control
dose: 1.0 mg/kg/injection, schedule: Q01DX007 (ip), vehicle: saline
  T/C: 152 % of control
dose: 1.0 mg/kg/injection, schedule: Q01DX009 (ip), vehicle: Klucel (hydroxypropylcellulose) (HPC)
  T/C: 181 % of control and 189 % of control
dose: 1.0 mg/kg/injection, schedule: Q01DX009 (ip), vehicle: saline sonified
  T/C: 169 % of control
dose: 1.0 mg/kg/injection, schedule: Q04DX003 (ip), vehicle: clinical formulation
  T/C: 159 % of control
dose: 1.5 mg/kg/injection, schedule: Q01DX010 (ip), vehicle: saline
  T/C: 101 % of control
dose: 1.5 mg/kg/injection, schedule: Q04DX003 (ip), vehicle: clinical formulation
  T/C: 151 % of control
dose: 1.5 mg/kg/injection, schedule: Q04DX003 (ip), vehicle: saline
  T/C: 164 % of control
dose: 1.6 mg/kg/injection, schedule: Q04DX003 (ip), vehicle: saline
  T/C: 172 % of control
dose: 1.67 mg/kg/injection, schedule: Q01DX009 (ip), vehicle: saline
  T/C: 151 % of control
dose: 2.0 mg/kg/injection, schedule: Q01DX001 (ip), vehicle: clinical formulation
  T/C: 153 % of control
dose: 2.0 mg/kg/injection, schedule: Q04DX003 (ip), vehicle: clinical formulation
  T/C: 236 % of control
dose: 2.5 mg/kg/injection, schedule: Q01DX009 (ip), vehicle: saline
  T/C: 34 % of control and 57 % of control
dose: 2.5 mg/kg/injection, schedule: Q01DX010 (ip), vehicle: saline
  T/C: 105 % of control
dose: 3.0 mg/kg/injection, schedule: Q04DX003 (ip), vehicle: clinical formulation
  T/C: 260 % of control
dose: 3.0 mg/kg/injection, schedule: Q04DX003 (ip), vehicle: saline
  T/C: 193 % of control
dose: 3.2 mg/kg/injection, schedule: Q04DX003 (ip), vehicle: saline
  T/C: 231 % of control
dose: 4.0 mg/kg/injection, schedule: Q01DX007 (ip), vehicle: saline
  T/C: 57 % of control

## OC1(c2ccccc2)c2ccc(Br)cc2-c2cc(Br)ccc21
[1]
  T/C: 92 % of control
dose: 200.0 mg/kg/injection, schedule: Q01DX009 (ip), vehicle: saline with Tween-80
  T/C: 88 % of control

## CCc1ccccc1NC(=O)NC(C)C
dose: 100.0 mg/kg/injection, schedule: Q04DX003 (ip), vehicle: Klucel (hydroxypropylcellulose) (HPC)
  T/C: 100 % of control
dose: 200.0 mg/kg/injection, schedule: Q04DX003 (ip), vehicle: Klucel (hydroxypropylcellulose) (HPC)
  T/C: 110 % of control
dose: 400.0 mg/kg/injection, schedule: Q04DX003 (ip), vehicle: Klucel (hydroxypropylcellulose) (HPC)
  T/C: 100 % of control

## NC(CO)C(=O)NC1(C(=O)O)CCCC1 (stereo not drawn) (H-[ξS]-[Ac5c]-OH)
dose: 100.0 mg/kg/injection, schedule: Q04DX003 (ip), vehicle: saline with Tween-80
  T/C: 123 % of control
dose: 133.0 mg/kg/injection, schedule: Q04DX003 (ip), vehicle: saline with Tween-80
  T/C: 122 % of control
dose: 300.0 mg/kg/injection, schedule: Q04DX003 (ip), vehicle: saline with Tween-80
  T/C: 117 % of control
dose: 400.0 mg/kg/injection, schedule: Q04DX003 (ip), vehicle: saline with Tween-80
  T/C: 100 % of control

## Cc1c2ccncc2cc2c1[nH]c1ccccc12
[2]
  T/C: 119 % of control
[3]
  T/C: 121 % of control
[1]
  T/C: 122 % of control

## CCCCCCCCCCCCNC(=O)Nc1ccc(CC)cc1
dose: 100.0 mg/kg/injection, schedule: Q01DX009 (ip), vehicle: Klucel (hydroxypropylcellulose) (HPC)
  T/C: 92 % of control
dose: 200.0 mg/kg/injection, schedule: Q01DX009 (ip), vehicle: Klucel (hydroxypropylcellulose) (HPC)
  T/C: 100 % of control
dose: 400.0 mg/kg/injection, schedule: Q01DX009 (ip), vehicle: Klucel (hydroxypropylcellulose) (HPC)
  T/C: 100 % of control

## OCCOCCN1CCN(CCCN2c3ccccc3Sc3ccc(C(F)(F)F)cc32)CC1
dose: 0.8 mg/kg/injection, schedule: Q01DX009 (ip), vehicle: saline
  T/C: 106 % of control
dose: 1.6 mg/kg/injection, schedule: Q01DX009 (ip), vehicle: saline
  T/C: 102 % of control
dose: 3.2 mg/kg/injection, schedule: Q01DX009 (ip), vehicle: saline
  T/C: 102 % of control
dose: 6.4 mg/kg/injection, schedule: Q01DX009 (ip), vehicle: saline
  T/C: 105 % of control
dose: 3.1 micrograms/kg/injection, schedule: Q01DX009 (ip), vehicle: saline
  T/C: 108 % of control
dose: 6.2 micrograms/kg/injection, schedule: Q01DX009 (ip), vehicle: saline
  T/C: 111 % of control
dose: 12.5 micrograms/kg/injection, schedule: Q01DX009 (ip), vehicle: saline
  T/C: 123 % of control
dose: 25.0 micrograms/kg/injection, schedule: Q01DX009 (ip), vehicle: saline
  T/C: 111 % of control
dose: 50.0 micrograms/kg/injection, schedule: Q01DX009 (ip), vehicle: saline
  T/C: 109 % of control
dose: 100.0 micrograms/kg/injection, schedule: Q01DX009 (ip), vehicle: saline
  T/C: 110 % of control
dose: 200.0 micrograms/kg/injection, schedule: Q01DX009 (ip), vehicle: saline
  T/C: 110 % of control
dose: 400.0 micrograms/kg/injection, schedule: Q01DX009 (ip), vehicle: saline
  T/C: 116 % of control

## FC(F)(F)c1ccc2nc(CI)c(CI)nc2c1
dose: 6.25 mg/kg/injection, schedule: Q01DX009 (ip), vehicle: Klucel (hydroxypropylcellulose) (HPC)
  T/C: 110 % of control
dose: 12.5 mg/kg/injection, schedule: Q01DX009 (ip), vehicle: Klucel (hydroxypropylcellulose) (HPC)
  T/C: 93 % of control
dose: 25.0 mg/kg/injection, schedule: Q01DX009 (ip), vehicle: Klucel (hydroxypropylcellulose) (HPC)
  T/C: 96 % of control
dose: 50.0 mg/kg/injection, schedule: Q01DX009 (ip), vehicle: Klucel (hydroxypropylcellulose) (HPC)
  T/C: 93 % of control

## Cc1c2cc(Cl)c3ccccc3c2c[n+]2ccccc12
dose: 3.12 mg/kg/injection, schedule: Q01DX009 (ip), vehicle: saline with Tween-80
  T/C: 110 % of control
dose: 6.25 mg/kg/injection, schedule: Q01DX009 (ip), vehicle: saline with Tween-80
  T/C: 113 % of control
dose: 12.5 mg/kg/injection, schedule: Q01DX009 (ip), vehicle: saline with Tween-80
  T/C: 110 % of control
[2]
  T/C: 115 % of control
[3]
  T/C: 115 % of control

— PubChem BioAssay AID192 (DTP/NCI, 2004)
